The values below come from patent US6770261B2, “Magnetic resonance imaging agents for the detection of physiological agents” (Research Corporation Technologies, priority 1995, dated 2004).

Where two headings read alike, the source gives them in different places.

On series [1], the source says:
FIG. 16 depicts the relaxivity of the CalGad complex as a function of calcium ion concentration.
The effect of Ca2^+ on the relaxivity of the complex

For series [2] the following is noted: for T1: 0.4 mM. How it is done:
The effect of pH on the relaxivity of the complex
The T1 of the Gd3^+-complex (0.4 mM in the buffer containing 100 mM KC1, 10 mM MOPS, 2 mM K2H2EGTA or 2 mM K2CaEGTA) was measured under different pH.

The conditions of series [3]: for T1: 0.4 mM, 1 mM K2H2EGTA. How it is done: The effect of Mg^2+ on the relaxivity of the complex
The T1 of the Gd^3+-complex (0.4 mM in the buffer containing 132 mM KC1, 10 mM MOPS, 1 mM K2H2EGTA, pH 7.20) was measured.

For series [4] the following is noted: literature value used for comparison (Lauffer); cited from earlier work.
Series [5] is described as follows: Relaxivity R by NMR spectroscopy at 500 MHz. Set-up: unit not given here. The format is physicochemical.
In series [6] the target is T1, β-galactosidase (Escherichia coli, UniProt P00722).
Source text: Characterization: The ability of β-galactosidase to remove the galactopyranosal blocking group from GadGal was examined by HPLC. The cleavage reaction was monitored using the distinct retention times of the complex and the complex without the galactopyranose residue.
Series [7] has as its target T1, β-galactosidase. As to conditions: for increase in signal (enhancement) in the presence of β-galactosidase: upon exposure to β-galactosidase.
Procedure: FIG. 9 depicts the change in T1 observed upon the β-galactosidase catalyzed cleavage of the galactopyranose residue (n=3). The first Column of each pair (1,3,5) represents the T1 of the galactose-DOTA complex and β-galactosidase mixture immediately after addition. The second column represents the T1 of the solution after a period of time in the presence of β-galactosidase. Each column is reported as a ratio to a control containing only the complex. Column 1 and 2: 2.0 mM Gd complex plus 1.7 uM β-galactosidase phosphate buffer (25 mM) pH 7.3. Column 3 and 4: 2.0 mM Gd plus 5.1 uM β-galactosidase phosphate buffer (25 mM) pH 7.3. Column 5 and 6: 2 mM Gd complex plus 5.1 uM heat inactivated β-galactosidase (10 minutes at 80 degrees) phosphate buffer (25 mM) pH 7.3. […] A minimal concentration of enzyme was used in these experiments to reduce potential effects of any contrast agent-enzyme interactions. T1 were carried out using a Bruker AMX 500 spectrometer at 26 degrees using a standard inversion-recovery sequence. The solution was placed in a 40 ul round bottomed NMR tube insert (Wilmad glass) and inserted into a tube containing d3-chloroform. A two dimensional data file was collected containing 16 different inversion delays with 8 scans each. The raw nmr data was processed (Felix, BIOSYM/Molecular Simulations, San Diego, Calif.) and the peak heights were fitted to an exponential rise to a max to obtain T1.
The effect of the enzymatic cleavage of the galactopyranose on the T1 of the complex was assessed using NMR spectroscopy.
The effect of the enzymatic cleavage of the galactopyranose unit from EGadMe and CarboxyMe on relaxation time T1 was determined by NMR spectroscopy at 500 MHz and 24° C. Various aqueous solutions of 0.5 mM EGadMe and CarboxyMe, respectively, were prepared, containing either: (a) no enzyme; (b) heat inactivated 5 μM β-galactosidase that was treated at 80° C. for 10 min; (c) 5 μM β-galactosidase where T1 was measured immediately after mixing; or (d) 5 μM β-galactosidase that was reacted with the complex for 3.5 days at 37° C.

T1 sequence (P00722 2-1024): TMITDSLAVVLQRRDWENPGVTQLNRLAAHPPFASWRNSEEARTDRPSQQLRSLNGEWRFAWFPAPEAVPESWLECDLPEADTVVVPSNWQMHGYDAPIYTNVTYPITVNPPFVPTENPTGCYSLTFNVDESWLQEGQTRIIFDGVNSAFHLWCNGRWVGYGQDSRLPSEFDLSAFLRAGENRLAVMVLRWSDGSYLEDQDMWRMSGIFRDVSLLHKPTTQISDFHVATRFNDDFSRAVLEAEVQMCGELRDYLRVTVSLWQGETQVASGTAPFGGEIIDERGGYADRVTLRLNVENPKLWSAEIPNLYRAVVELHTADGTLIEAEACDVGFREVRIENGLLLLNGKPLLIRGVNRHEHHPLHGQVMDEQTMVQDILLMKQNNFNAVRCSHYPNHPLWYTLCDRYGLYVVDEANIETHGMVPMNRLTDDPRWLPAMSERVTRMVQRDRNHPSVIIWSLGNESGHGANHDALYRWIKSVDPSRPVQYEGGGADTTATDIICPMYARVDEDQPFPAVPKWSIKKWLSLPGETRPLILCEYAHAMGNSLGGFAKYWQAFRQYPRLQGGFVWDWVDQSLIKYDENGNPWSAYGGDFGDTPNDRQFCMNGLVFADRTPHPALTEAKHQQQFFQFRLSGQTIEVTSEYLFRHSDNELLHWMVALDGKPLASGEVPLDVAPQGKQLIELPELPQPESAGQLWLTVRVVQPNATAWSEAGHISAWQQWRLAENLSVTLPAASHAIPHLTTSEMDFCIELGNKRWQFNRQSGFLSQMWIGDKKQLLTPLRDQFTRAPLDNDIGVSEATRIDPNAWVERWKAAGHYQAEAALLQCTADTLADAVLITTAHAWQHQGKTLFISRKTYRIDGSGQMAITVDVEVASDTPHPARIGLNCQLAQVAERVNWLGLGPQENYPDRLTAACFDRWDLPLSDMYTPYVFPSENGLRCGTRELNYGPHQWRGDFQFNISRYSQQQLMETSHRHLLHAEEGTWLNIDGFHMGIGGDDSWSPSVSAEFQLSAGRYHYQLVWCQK

With `O=C([O-])CN1CCN(CCCOc2cccc(OCCOc3cccc(OCCCN4CCN(CC(=O)[O-])CCN(CC(=O)[O-])CCN(CC(=O)[O-])CC4)c3N(CC(=O)O)CC(=O)O)c2N(CC(=O)O)CC(=O)O)CCN(CC(=O)[O-])CCN(CC(=O)[O-])CC1.[Gd+3].[Gd+3]` [CalGad, Gd^3+-BAPTA-DO3A2], the results for the “relaxivity R” value in series [1] (in the absence of Ca^2+) and in series [1] (in the presence of Ca^2+) were 3.03 mM⁻¹ s⁻¹ and 5.53 mM⁻¹ s⁻¹, respectively. The T1 is 390 ms in series [2] (2 mM K2CaEGTA, pH 6.80); 393 ms in series [2] (2 mM K2CaEGTA, pH 7.00); 394 ms in series [2] (2 mM K2CaEGTA, pH 7.20); 397 ms in series [2] (2 mM K2CaEGTA, pH 7.40); 600 ms in series [2] (2 mM K2H2EGTA, pH 6.80); 605 ms in series [2] (2 mM K2H2EGTA, pH 7.00). Besides, the T1 in series [2] (2 mM K2H2EGTA, pH 7.20) was determined as 604 ms; in series [2] (2 mM K2H2EGTA, pH 7.40) it was 608 ms; in series [3] (pH 7.20, Mg^2+ 0 mM) it was 607 ms; in series [3] (pH 7.20, Mg^2+ 1 mM), 602 ms; in series [3] (pH 7.20, Mg^2+ 2 mM), 601 ms; in series [3] (pH 7.20, Mg^2+ 5 mM), 609 ms. For the same molecule, the T1 was 607 ms in series [3] (pH 7.20, Mg^2+ 10 mM) and 610 ms in series [3] (pH 7.20, Mg^2+ 20 mM). For the same molecule, in series [2] (pH 6.80 to 7.40, in the presence or absence of Ca^2+), the “effect of changing pH on the relaxivity” value is given as “minimum effects”. Also, the “effect of changing Mg^2+ concentration on the relaxivity” value in series [3] (Mg^2+ 0 to 20 mM) is on record as “minimum effects”.

Consider `O=C([O-])CN1CCN(CC(=O)[O-])CCN(CC(=O)O)CCN(CC(=O)[O-])CC1.[Gd+3]` [Gd-DOTA], for which the “q (number of coordinating water molecules)” value in series [4] was 1.2.

On to “Do3a-hydroxyethyl-beta-galactose Gadolinium complex [GadGal]”, for which the “relaxivity R” value in series [5] is reported as 1800. The “cleavage of galactopyranose (HPLC traces)” value in series [6] (incubated with β-galactosidase for 7 days, phosphate buffer pH 7.3) is “greater than 95%”. Also, the “enzymatic processing of the complex (HPLC)” value in series [6] (native vs heat-inactivated β-galactosidase) is listed as “enzymatic processing of the complex by native but not heat-treated enzyme”. Moreover, the “difference between measured T1 values in the presence and absence of β-galactosidase” value in series [7] (2.0 mM Gd complex, 1.7 or 5.1 uM β-galactosidase, pH 7.3, 500 MHz) is listed as 20%. Also, in series [7] (control, heat inactivated β-galactosidase), the “change of solution T1 with heat inactivated enzyme” value was “no decrease”. In addition, the figures for the “increase in signal (enhancement) in the presence of β-galactosidase” value in series [7] (listed as Example 1 compound) and in series [7] (listed as galactose-DOTA structure of Example 1) were “roughly 20%” and around 20%, respectively.
